From patent US20230357261A1, “ARYL HYDROCARBON RECEPTOR LIGANDS AND THEIR ANALOGUES FOR THE PREVENTION AND TREATMENT OF INFLAMMATORY DISORDERS” (The Johns Hopkins University, priority 2020, published 2023)

Columns and labels:
[1] = tested on: AHR; test: AHR activation in mouse intestine in vivo (Cyp1a1 expression by qRT-PCR); settings: for Cyp1a1 expression in the intestinal epithelium: fed I3C 25 mg/kg/day or A18 300 mg/kg/day
Protocol: Hits were validated for activation of AHR signaling by oral gavage into neonatal C57/B16 mice (p11), and measuring the expression of the AHR activation reporter Cyp1a1 by qRT-PCR in the intestinal mucosa 24 hours later. The lead compound from these studies is herein labelled “A18”. Additionally, the mice were subjected to hypoxia (5% 02-95% N2) for 10 min in a hypoxia chamber (Billups-Rothenberg) twice daily for 4 days. […] To test the protective effect of breast milk on AHR signaling a NEC, human breast milk (Innovative Research) was supplemented to the formula at the final concentration of 5%. Endotoxemia was induced in neonatal mouse pups (p11) by administering 5 mg/kg lipopolysaccharides (LPS) via intraperitoneal injection, and ileal samples were harvested 6 hours after LPS treatments. […] I3C and A18 were administered to the pregnant mother daily until the offspring were studied further for experimental NEC or endotoxemia as above. […] The mRNA quantification was performed on the Bio-Rad CFX96 Real-Time System (Bio-Rad) using iTaqTM universal SYBR® Green supermix (Bio-Rad) and the primers listed in Table 1. The relative mRNA expression levels were normalized against the expression of the housekeeping gene ribosomal protein lateral stalk subunit P0 (Rplp0). For microRNA isolation, freshly harvested, snap-frozen ileal tissue was subjected to total RNA isolation using the RNeasy plus universal mini kit (Qiagen) and miRNA was quantified using miScript PCR starter kit (Qiagen) following the manufacturer's protocols. The relative miRNA expression levels were normalized against the expression of housekeeping miRNA miR-191.

[2] = tested on: TLR4; test: TLR4 signaling and expression in human ileal explant culture (LPS); assay type: cell-based
From the text: (§1) De-identified human ileal samples were collected via waiver of consent from the Office of Human Subjects Research Review Boards at Johns Hopkins University (IRB00094036), during surgery for NEC or at the time of stoma closure. For RNA isolation and qRT-PCR analysis, fresh samples were snapfrozen in liquid nitrogen immediately. For human explant culture, fresh ileum samples from NEC patients or patient undergoing stoma re-anastomosis were washed with sterile phosphate-buffered saline containing gentamycin (5 μg/mL), minced into 2- to 4-mm diameter pieces, and then cultured in Dulbecco's modified Eagle growth medium supplemented with 10% fetal bovine serum, 4 μg/mL human recombinant insulin and 100 μg/mL Primocin. Human ilea explant cultures were then pre-treated with 200 μM I3C or 20 μM A18 for 15 minutes, and then with 50 μg/mL LPS for 6 hours, then processed for total RNA isolation followed by qRT-PCR.
(§2) Total RNA was isolated using the RNeasy mini kit (Qiagen) and complementary DNA was synthesized from 0.5 μg RNA using QuantiTect Reverse Transcription kit (Qiagen) following the manufacturer's protocols. The mRNA quantification was performed on the Bio-Rad CFX96 Real-Time System (Bio-Rad) using iTaq™ universal SYBR® Green supermix (Bio-Rad) and the primers listed in Table 1. The relative mRNA expression levels were normalized against the expression of the housekeeping gene ribosomal protein lateral stalk subunit P0 (Rplp0). For microRNA isolation, freshly harvested, snap-frozen ileal tissue was subjected to total RNA isolation using the RNeasy plus universal mini kit (Qiagen) and miRNA was quantified using miScript PCR starter kit (Qiagen) following the manufacturer's protocols. The relative miRNA expression levels were normalized against the expression of housekeeping miRNA miR-191.

[3] = tested on: AHR; test: AHR activation in IEC-6 enterocytes (Cyp1a1 expression); assay type: cell-based, rat; settings: A18, 6 hours
Protocol: The intestinal epithelial cells line IEC-6 (ATCC CRL-1592) was stably transduced with lentiviral particles containing Cignal Lenti XRE Reporter (luc) (Qiagen). Cells were treated serially with individual chemicals contained within the Johns Hopkins Drug Library (JHDL), which contains a series of FDA-approved drugs, Chong et al., 2006, (kindly provided by Dr. Jun O. Liu, Johns Hopkins University) at 10 μM for 24 hours, and the luciferase activity was quantified using the SpectraMax M3 (Molecular Devices).
as §2

[4] = tested on: mouse NEC model; test: Experimental NEC in newborn mice (Example 1); assay type: in vivo
[5] = tested on: TLR4; test: TLR4 signaling and Tlr4 expression in newborn mouse ileum in vivo (endotoxemia model, LPS)
Protocol: Endotoxemia was induced in neonatal mouse pups (p11) by administering 5 mg/kg lipopolysaccharides (LPS) via intraperitoneal injection, and ileal samples were harvested 6 hours after LPS treatments. […] I3C and A18 were administered to the pregnant mother daily until the offspring were studied further for experimental NEC or endotoxemia as above. […] The mRNA quantification was performed on the Bio-Rad CFX96 Real-Time System (Bio-Rad) using iTaqTM universal SYBR® Green supermix (Bio-Rad) and the primers listed in Table 1. The relative mRNA expression levels were normalized against the expression of the housekeeping gene ribosomal protein lateral stalk subunit P0 (Rplp0). For microRNA isolation, freshly harvested, snap-frozen ileal tissue was subjected to total RNA isolation using the RNeasy plus universal mini kit (Qiagen) and miRNA was quantified using miScript PCR starter kit (Qiagen) following the manufacturer's protocols. The relative miRNA expression levels were normalized against the expression of housekeeping miRNA miR-191.

[6] = tested on: AHR; test: AHR activation in human ileal explant culture (Cyp1a1 qRT-PCR); assay type: cell-based; settings: 200 μM I3C or 20 μM A18, 15 minutes pre-treatment then 6 hours
From the text: as §1, with “Human ilea explant cultures were then pre-treated with 200 μM I3C or 20 μM A18 for 15 minutes, and then with 50 μg/mL LPS for 6 hours, then processed for total RNA isolation followed by qRT-PCR.” left out
as §2, with “The relative mRNA expression levels were normalized against the expression of the housekeeping gene ribosomal protein lateral stalk subunit P0 (Rplp0).” left out, “The relative miRNA expression levels were normalized against the expression of housekeeping miRNA miR-191.” left out

[7] = cited from earlier work
[8] = A18 administered during pregnancy
[9] = wild-type newborn mice, A18 300 mg/kg body weight/day for 4 days, oral

Cyp1a1 expression in the offspring pup intestine ([1]; A18 administered during pregnancy, 300 mg/kg body weight/day): induced the expression of Cyp1a1 | Cyp1a1 expression in the intestinal epithelium ([1]; Ahr^−/− newborn mice): not | Cyp1a1 expression in the intestinal epithelium ([1]; wild-type newborn (p11) mice): induced the expression of Cyp1a1 | Cyp1a1 expression in IEC-6 enterocytes [3]: induced the expression of Cyp1a1 | Cyp1a1 expression in human intestinal explant cultures [6]: significantly induced Cyp1a1 expression
Compound: Cc1c(OCC(F)(F)F)ccnc1C[S+]([O-])c1nc2ccccc2[nH]1 (centres unmarked) [A18, Lansoprazole]
Tlr4 expression in human intestine ex vivo ([2]; 20 μM A18, LPS 50 μg/mL for 6 hours): significantly reduced | LPS-induced Tnf-a expression in human intestinal explant cultures ([2]; 200 μM I3C or 20 μM A18, LPS 50 μg/mL for 6 hours): significantly reduced LPS-induced Tnf-a expression | inflammation in the intestine of human resected at the time of surgery for NEC ([2]; summary statement): dampened inflammation | Tlr4 expression in the neonatal gut (NEC) [4, 8]: reduced | Tnf-a expression in the neonatal gut (NEC) [4, 8]: reduced Tnf-a | histology and NEC severity [4, 8]: improved histology and NEC severity | NEC severity in the offspring ([4]; A18 administered during pregnancy (M-A18, 300 mg/kg body weight/day)): significantly reduced NEC severity | prevention and treatment of NEC in mouse models ([4]; summary statement): effectively prevented and treated NEC | NEC severity ([4]; wild-type mice, oral to pups during NEC induction: I3C 25 mg/kg/day, A18 300 mg/kg/day, or human breast milk 5% in formula): significantly reduced NEC severity | NEC severity score [4, 9]: improved NEC severity score | expression of I16 (NEC) [4, 9]: reduced expression of I16 | histology of the terminal ileum (NEC) [4, 9]: improved histology | Tlr4 expression in the intestinal mucosa / newborn ileum ([5]; wild-type mice, fed I3C or A18): reduced Tlr4 expression | TLR4 (LPS)-induced 116 expression in the intestine ([5]; wild-type newborn mice, fed A18 (300 mg/kg/day) or oral breast milk): significantly reduced TLR4-induced 116 expression | bound in human plasma ([7]; human plasma): approximately 97% | plasma elimination half-life ([7]; in humans): approximately 2 h | absorption ([7]; in vivo): rapidly absorbed | metabolism by CYP3A4 and CYP2C18 ([7]; in vivo): extensively metabolized
